Values of other authors as cited in paper PMC2975871 (The FEBS journal, 2010).
In brackets after ≈: the same amount, converted by molar mass.

CC(C)CN(C[C@@H](O)[C@H](Cc1ccccc1)NC(=O)O[C@H]1CO[C@H]2OCC[C@H]21)S(=O)(=O)c1ccc(N)cc1 [DRV, darunavir]
worse inhibition relative to wild type enzyme (PR with mutation I50V): 9 fold

CC(C)(C)NC(=O)[C@@H]1CN(Cc2cccnc2)CCN1C[C@@H](O)C[C@@H](Cc1ccccc1)C(=O)N[C@H]1c2ccccc2C[C@H]1O [IDV, indinavir]
decreased inhibition (PR with mutation I50V): 50 fold

CC(C)(C)NC(=O)[C@@H]1C[C@@H]2CCCC[C@@H]2CN1C[C@@H](O)[C@H](Cc1ccccc1)NC(=O)[C@H](CC(N)=O)NC(=O)c1ccc2ccccc2n1 [SQV, saquinavir]
water solubility: 36 µg/mL (≈ 53.7 µM) | decreased inhibition (PR with mutation I50V): 20 fold

CC(C)CN(C[C@@H](O)[C@H](Cc1ccccc1)NC(=O)O[C@H]1CCOC1)S(=O)(=O)c1ccc(N)cc1 [amprenavir]
increased IC50 (I54M mutation): 6 fold
